Source: US9145411B2, “Substituted amino-pyrimidine derivatives” (Asana Biosciences, LLC, priority 2012, dated 2015)

Legend:
U87MG cells = assay: XTT assay for cell viability, U87MG cells; format: cell-based; conditions: Homo sapiens, U-87 MG, read-out: inhibition of U87MG cell proliferation, IC50
Protocol: Using a commercial kit from Sigma Aldrich (Catalog #X34251) and following its protocol, PC3 cells in the log phase of growth were employed and seeded at an optimal density of 1000 cell/well on to 96 well plates and incubated for 24 hours followed by the addition of compounds of formula (I) in serial dilutions. Compound dilutions were made in DMSO. The cells were incubated with the compounds of formula (I) for 96 hours and XTT tetrazolium dye (Sigma, USA) was subsequently added and incubated at 37° C. After the color formation, absorbance was measured at 465 nm in a Spectramax® Gemini spectrophotometer. EC50 values were calculated using a sigmoidal dose response curve fit in GraphPad Prism® v5 software. The tested compounds of formula (I) which caused inhibition of PC3 cell proliferation as determined by this assay protocol are shown in Table 2.
XTT assays for cell viability were also determined in U87MG, BT474 cells and T47D cells, in a similar manner to the protocol described above. The compounds cause inhibition of U87MG, BT474 and T47D cell proliferation as determined by these assays. For example, the compounds of Examples 3 and 7 caused inhibition of U87MG, BT474 and T47D cell proliferation with IC50 values<600 nM.

PI3Kα mutation H1047R = PI3Kα mutation H1047R (Homo sapiens, UniProt P42336, H1047R); assay: PI3 Kinase TR-FRET assay, PI3Kα mutation H1047R; format: biochemical; conditions: read-out: inhibition of PI3Kα mutation H1047R, IC50
Protocol: (§1) The ability of compounds of the invention to inhibit PI3K activity was determined in a homogeneous TR-FRET assay using a PI3K assay kit (Millipore, USA; cat #33-016) according to manufacturer's instructions. PI3-Kinases (isoforms α, β, γ and δ) catalyze the phosphorylation of phosphatidylinositol, PIP2 to PIP3 in the presence of ATP and Mg^2+. The PIP3 product is detected by displacement of biotin-PIP3 from an energy transfer complex consisting of Europium labeled anti-GST monoclonal antibody, a GST-tagged PH domain, biotinylated PIP3 and Streptavidin-APC. Excitation of Europium in the complex results in an energy transfer to the APC and a fluorescence emission at 665 nm. The PIP3 product displaces biotin-PIP3 from the complex resulting in a loss of energy transfer and thus a decrease in signal.
(§2) To test for the ability of compounds to inhibit the activity of PI3Kα (wild-type), exemplary compounds of formula (I) were dissolved in DMSO and directly distributed into 384-well plates at a volume of 0.5 μL. 14.5 μL of P110/P85α/PIP2 mixture in buffer (obtained from the Millipore kit) containing MgCl2 (40 mM) and DTT (5 mM) was added to compound wells and incubated for 60 minutes at room temperature. P110/P85α was expressed in SF9 insect cells and purified nickel column extraction. Five ng of wild-type P110/P85α was used in the assay. The kinase reaction was started by the addition of ATP. The assay concentrations of both PIP2 and ATP were 10 μM. The reaction mixture was incubated for 30 minutes at room temperature and was terminated by the addition of stop mix and detection mix. Fluorescence was measured at 615 and 665 nm upon excitation at 340 nm in a Victor™ V5 fluorometer (Perkin Elmer, USA). The fluorescence emission ratio at 665 to 615 nm, proportional to the kinase activity, was plotted against the compound concentration to generate dose-response curves and IC50 values were determined using GraphPad Prism® 5 software.
(§3) The activity of PI3Kα mutations H1047R and E545K were assayed in a similar manner to the assay protocol described above for PI3Kα (wild type). The compounds of formula (I) caused inhibition of PI3Kα mutations H1047R (a mutation associated with breast and gastric cancers) and E545K (a mutation associated with colorectal tumors, glioblastomas, gastric cancers, breast cancers, and lung cancers). For example, each of the compounds of Example 3, 7, 21, 47, 48 and 49 caused inhibition of each of the PI3Kα mutations H1047R and E545K with IC50 values<50 nM.

PI3Kα mutation E545K = PI3Kα mutation E545K (Homo sapiens, UniProt P42336, E545K); assay: PI3 Kinase TR-FRET assay, PI3Kα mutation E545K; format: biochemical; conditions: read-out: inhibition of PI3Kα mutation E545K, IC50
Protocol: as §1, §2, §3

pAKT (T308) = assay: In vivo PK/PD study, U87MG tumor xenograft, pAKT (T308); conditions: U87MG tumor-bearing xenograft mice, 50 mg/kg po
Protocol: PC3 cells are cultured at 37° C. in a 5% CO2 incubator using Hams F12 K medium. Ten million (10^7) cells are injected subcutaneously to the right flank region of athymic male mice (Harlan, age: 6-7 weeks, weight: about 20 g). Tumor bearing mice are randomized when the tumor volume reaches about 250 mm^3 and three mice are used per each time point. Test compounds of formula (I) are typically formulated in 40% HPCD in 1×PBS, pH 7.4 or in 10% Ethanol/40% Solutol/50% 50 mM aq. methanesulfonic acid and dosed orally at 50 mg/kg single dose (dose volume—10 mL/kg). Plasma and tumor samples are collected at 0 (vehicle control animals), 1, 4 and 24 hours post dosing. Blood is drawn (retro orbital) to a tube containing 0.2% EDTA for plasma collection. […] Tumor and plasma drug concentrations are measured for PK analysis using LC-MS.
Snap frozen tumor samples are pulverized in a mortar (Belart) containing liquid nitrogen and tumor powder is stored at −80° C. until analysis. […] The detection for pAKT is based on chemiluminescence and pS6RP is based on absorbance. […]
In vivo pharmacokinetic/pharmacodynamic (PK/PD) studies were carried out in a similar manner using U87MG tumor cells (glioma cancer cell line with a PTEN null mutation) and the corresponding tumor-bearing xenograft mice, and compounds of the invention were determined to be active in this assay. […]

Sequence of PI3Kα mutation H1047R (P42336 whole entry H1047R, the tested form may be a part, canonical isoform): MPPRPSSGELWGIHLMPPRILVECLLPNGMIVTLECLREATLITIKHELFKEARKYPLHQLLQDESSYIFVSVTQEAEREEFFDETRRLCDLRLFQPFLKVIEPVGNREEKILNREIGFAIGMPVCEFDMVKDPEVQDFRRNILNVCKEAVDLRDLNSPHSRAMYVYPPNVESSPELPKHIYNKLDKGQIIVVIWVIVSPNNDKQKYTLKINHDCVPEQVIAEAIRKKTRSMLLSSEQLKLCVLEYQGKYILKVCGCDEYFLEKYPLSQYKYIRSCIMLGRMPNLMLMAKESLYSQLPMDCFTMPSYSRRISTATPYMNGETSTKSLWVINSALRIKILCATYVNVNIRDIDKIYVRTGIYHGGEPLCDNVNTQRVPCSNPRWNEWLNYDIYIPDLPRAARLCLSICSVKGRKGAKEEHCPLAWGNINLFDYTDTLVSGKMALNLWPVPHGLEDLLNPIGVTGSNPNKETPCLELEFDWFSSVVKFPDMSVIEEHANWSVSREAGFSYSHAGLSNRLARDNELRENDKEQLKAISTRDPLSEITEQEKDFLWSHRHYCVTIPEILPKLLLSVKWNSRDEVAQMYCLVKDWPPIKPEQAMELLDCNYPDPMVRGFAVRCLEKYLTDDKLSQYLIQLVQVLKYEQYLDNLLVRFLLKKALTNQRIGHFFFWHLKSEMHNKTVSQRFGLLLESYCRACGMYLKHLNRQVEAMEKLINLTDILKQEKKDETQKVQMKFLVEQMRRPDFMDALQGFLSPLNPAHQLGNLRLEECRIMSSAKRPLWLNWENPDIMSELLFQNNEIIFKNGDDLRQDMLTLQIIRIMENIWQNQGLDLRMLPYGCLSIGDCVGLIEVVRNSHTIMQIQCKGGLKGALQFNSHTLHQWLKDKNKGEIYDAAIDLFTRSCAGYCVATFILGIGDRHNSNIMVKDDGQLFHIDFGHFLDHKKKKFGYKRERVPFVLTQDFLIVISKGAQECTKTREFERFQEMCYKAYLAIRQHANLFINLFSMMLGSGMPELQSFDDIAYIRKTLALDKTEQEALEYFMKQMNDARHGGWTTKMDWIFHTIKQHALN
Sequence of PI3Kα mutation H1047R (P27986 whole entry partner, the tested form may be a part, canonical isoform): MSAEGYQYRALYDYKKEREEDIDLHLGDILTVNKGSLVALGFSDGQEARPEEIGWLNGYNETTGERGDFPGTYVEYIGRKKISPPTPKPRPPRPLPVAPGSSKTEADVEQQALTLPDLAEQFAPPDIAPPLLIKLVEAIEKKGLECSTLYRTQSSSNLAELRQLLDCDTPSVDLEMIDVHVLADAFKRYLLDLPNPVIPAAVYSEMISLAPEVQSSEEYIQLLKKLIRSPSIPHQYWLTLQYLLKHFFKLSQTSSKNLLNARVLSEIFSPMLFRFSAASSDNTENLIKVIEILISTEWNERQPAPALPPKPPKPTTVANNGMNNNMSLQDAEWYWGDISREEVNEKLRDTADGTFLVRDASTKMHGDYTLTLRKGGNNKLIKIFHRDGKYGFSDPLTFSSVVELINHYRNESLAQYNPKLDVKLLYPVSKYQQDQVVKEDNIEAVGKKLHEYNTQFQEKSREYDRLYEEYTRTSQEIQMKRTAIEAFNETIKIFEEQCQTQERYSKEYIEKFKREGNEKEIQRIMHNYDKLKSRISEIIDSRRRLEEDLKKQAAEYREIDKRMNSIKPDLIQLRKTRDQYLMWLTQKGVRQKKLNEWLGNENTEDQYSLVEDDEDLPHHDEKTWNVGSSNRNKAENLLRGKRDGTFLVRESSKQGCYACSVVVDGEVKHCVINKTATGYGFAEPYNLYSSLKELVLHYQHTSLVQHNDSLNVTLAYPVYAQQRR
Sequence of PI3Kα mutation E545K (P42336 whole entry E545K): as the sequence (P42336 whole entry H1047R, the tested form may be a part, canonical isoform) above, with E545K, R1047H counted along it
Sequence of PI3Kα mutation E545K (P27986 whole entry partner): as the sequence (P27986 whole entry partner, the tested form may be a part, canonical isoform) above

| Compound | IC50 (U87MG cells) [nM] | IC50 (PI3Kα mutation H1047R) [nM] | IC50 (PI3Kα mutation E545K) [nM] | suppression of pAKT (T308) (pAKT (T308)) |
| --- | --- | --- | --- | --- |
| CC(=O)Nc1cccc(-c2cnc3c(N4CCOCC4)nc(-c4cnc(N)nc4)nc3c2)c1 [Example 3, N-(3-(2-(2-Aminopyrimidin-5-yl)-4-morpholinopyrido[3,2-d]pyrimidin-7-yl)-phenyl)acetamide] | < 600 | < 50 | < 50 | suppression |
| Nc1ncc(-c2nc(N3CCOCC3)c3ncc(-c4cccc(NC(=O)C5CC5)c4)cc3n2)cn1 [Example 7, N-(3-(2-(2-Aminopyrimidin-5-yl)-4-morpholinopyrido[3,2-d]pyrimidin-7-yl)-phenyl)cyclopropanecarboxamide] | < 600 | < 50 | < 50 |  |
| N#CC1(C(=O)Nc2cccc(-c3cnc4c(N5CCOCC5)nc(-c5cnc(N)nc5)nc4c3)c2)CC1 [Example 61, N-(3-(2-(2-amino-pyrimidin-5-yl)-4-morpholinopyrido[3,2-d]pyrimidin-7-yl)phenyl)-1-cyanocyclopropane-carboxamide] |  |  |  | suppression |
